Measurements as given in patent US11208412B2 (DAEGU-GYEONGBUK MEDICAL INNOVATION FOUNDATION, priority 2017, dated 2021).

Columns and labels:
Assay in all cases: Kinase selectivity, DiscoverX scanMAX Kinase assay panel (% control)
Type in all cases: binding
[1] = molecular target: T1, kinases of the scanMAX Kinase assay panel (Homo sapiens, UniProt O95382); settings: ASK2; 1 uM
T1 construct: purchased DiscoverX Co. (contract measurement) scanMAX Kinase assay panel
T1 sequence (O95382 1-1288): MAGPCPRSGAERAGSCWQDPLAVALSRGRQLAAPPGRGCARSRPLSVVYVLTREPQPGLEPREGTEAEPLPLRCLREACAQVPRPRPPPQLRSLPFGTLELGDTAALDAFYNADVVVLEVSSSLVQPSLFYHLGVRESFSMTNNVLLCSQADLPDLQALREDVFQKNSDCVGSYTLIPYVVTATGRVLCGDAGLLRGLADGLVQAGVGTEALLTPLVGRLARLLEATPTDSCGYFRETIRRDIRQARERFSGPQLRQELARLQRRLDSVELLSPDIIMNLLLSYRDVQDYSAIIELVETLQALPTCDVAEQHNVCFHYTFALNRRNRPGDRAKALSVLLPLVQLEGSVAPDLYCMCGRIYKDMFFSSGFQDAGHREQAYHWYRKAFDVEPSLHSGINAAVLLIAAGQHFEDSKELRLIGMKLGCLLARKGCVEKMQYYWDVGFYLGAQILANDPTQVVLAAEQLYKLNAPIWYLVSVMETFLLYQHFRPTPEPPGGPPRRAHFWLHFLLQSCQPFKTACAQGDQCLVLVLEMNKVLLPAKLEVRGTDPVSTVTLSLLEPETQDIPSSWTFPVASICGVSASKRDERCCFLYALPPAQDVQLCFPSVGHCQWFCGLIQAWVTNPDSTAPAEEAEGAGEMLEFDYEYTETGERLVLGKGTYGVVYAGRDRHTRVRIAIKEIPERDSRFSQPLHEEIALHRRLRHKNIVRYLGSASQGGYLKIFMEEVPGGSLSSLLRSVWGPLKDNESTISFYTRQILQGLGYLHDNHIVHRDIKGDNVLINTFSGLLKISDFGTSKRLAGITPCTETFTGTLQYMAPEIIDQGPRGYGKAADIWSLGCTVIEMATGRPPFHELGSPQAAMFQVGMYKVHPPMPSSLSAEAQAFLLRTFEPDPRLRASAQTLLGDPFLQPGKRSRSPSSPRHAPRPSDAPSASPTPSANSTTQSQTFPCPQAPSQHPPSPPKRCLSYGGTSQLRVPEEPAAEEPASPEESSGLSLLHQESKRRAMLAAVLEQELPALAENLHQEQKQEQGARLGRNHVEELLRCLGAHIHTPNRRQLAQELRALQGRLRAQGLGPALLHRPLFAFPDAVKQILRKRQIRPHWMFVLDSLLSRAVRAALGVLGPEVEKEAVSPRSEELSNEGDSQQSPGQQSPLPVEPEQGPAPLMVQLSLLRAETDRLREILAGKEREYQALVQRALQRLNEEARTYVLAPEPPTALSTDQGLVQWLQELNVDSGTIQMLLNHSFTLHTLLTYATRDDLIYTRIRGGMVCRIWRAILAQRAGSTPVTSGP
Outline: (§1)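 A 1 uM DMSO solution of compound was applied across the panel kinases, and results were expressed as % control relative to DMSO (100%) and a positive control (0%).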

[2] = molecular target: T2, kinases of the scanMAX Kinase assay panel (Homo sapiens, UniProt Q9NQU5); settings: PAK6; 1 uM
T2 construct: purchased DiscoverX Co. (contract measurement) scanMAX Kinase assay panel
Outline: as §1

[3] = molecular target: T3, kinases of the scanMAX Kinase assay panel (Homo sapiens, UniProt Q6P2M8); settings: CAMK1B; 1 uM
T3 construct: purchased DiscoverX Co. (contract measurement) scanMAX Kinase assay panel
Outline: as §1

[4] = molecular target: T4, kinases of the scanMAX Kinase assay panel (Homo sapiens, UniProt Q02779); settings: MLK2; 1 uM
T4 construct: purchased DiscoverX Co. (contract measurement) scanMAX Kinase assay panel
Outline: as §1

[5] = molecular target: T5, kinases of the scanMAX Kinase assay panel (Homo sapiens, UniProt P08069); settings: IGF1R; 1 uM
T5 construct: purchased DiscoverX Co. (contract measurement) scanMAX Kinase assay panel
Outline: as §1

[6] = molecular target: T6, kinases of the scanMAX Kinase assay panel (Homo sapiens, UniProt Q9BYT3); settings: kinase STK33; 1 uM in DMSO
T6 construct: purchased DiscoverX Co. (contract measurement) scanMAX Kinase assay panel
Outline: as §1

[7] = molecular target: T7, kinases of the scanMAX Kinase assay panel (Homo sapiens, UniProt Q9Y2K2); settings: QSK; 1 uM
T7 construct: purchased DiscoverX Co. (contract measurement) scanMAX Kinase assay panel
Outline: as §1

[8] = molecular target: T8, kinases of the scanMAX Kinase assay panel (Homo sapiens, UniProt Q9HBY8); settings: kinase SGK2; 1 uM in DMSO
T8 construct: purchased DiscoverX Co. (contract measurement) scanMAX Kinase assay panel
T8 sequence (Q9HBY8 1-367): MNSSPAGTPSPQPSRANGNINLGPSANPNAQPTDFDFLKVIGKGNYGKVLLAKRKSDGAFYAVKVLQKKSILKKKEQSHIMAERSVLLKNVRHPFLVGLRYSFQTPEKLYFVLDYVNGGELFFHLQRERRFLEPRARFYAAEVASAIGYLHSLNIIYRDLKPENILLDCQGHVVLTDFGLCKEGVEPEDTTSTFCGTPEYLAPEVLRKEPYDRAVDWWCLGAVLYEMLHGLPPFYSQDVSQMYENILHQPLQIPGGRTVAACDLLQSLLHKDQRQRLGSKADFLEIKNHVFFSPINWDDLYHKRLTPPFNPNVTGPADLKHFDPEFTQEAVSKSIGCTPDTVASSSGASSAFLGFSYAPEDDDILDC
Outline: as §1

[9] = molecular target: T9, kinases of the scanMAX Kinase assay panel (Homo sapiens, UniProt Q8NEV4); settings: MYO3A; 1 uM
T9 construct: purchased DiscoverX Co. (contract measurement) scanMAX Kinase assay panel
Outline: as §1

[10] = molecular target: T10, kinases of the scanMAX Kinase assay panel (Homo sapiens, UniProt P42345); settings: MTOR; 1 uM
T10 construct: purchased DiscoverX Co. (contract measurement) scanMAX Kinase assay panel
Outline: as §1

T2 sequence (Q9NQU5 whole entry): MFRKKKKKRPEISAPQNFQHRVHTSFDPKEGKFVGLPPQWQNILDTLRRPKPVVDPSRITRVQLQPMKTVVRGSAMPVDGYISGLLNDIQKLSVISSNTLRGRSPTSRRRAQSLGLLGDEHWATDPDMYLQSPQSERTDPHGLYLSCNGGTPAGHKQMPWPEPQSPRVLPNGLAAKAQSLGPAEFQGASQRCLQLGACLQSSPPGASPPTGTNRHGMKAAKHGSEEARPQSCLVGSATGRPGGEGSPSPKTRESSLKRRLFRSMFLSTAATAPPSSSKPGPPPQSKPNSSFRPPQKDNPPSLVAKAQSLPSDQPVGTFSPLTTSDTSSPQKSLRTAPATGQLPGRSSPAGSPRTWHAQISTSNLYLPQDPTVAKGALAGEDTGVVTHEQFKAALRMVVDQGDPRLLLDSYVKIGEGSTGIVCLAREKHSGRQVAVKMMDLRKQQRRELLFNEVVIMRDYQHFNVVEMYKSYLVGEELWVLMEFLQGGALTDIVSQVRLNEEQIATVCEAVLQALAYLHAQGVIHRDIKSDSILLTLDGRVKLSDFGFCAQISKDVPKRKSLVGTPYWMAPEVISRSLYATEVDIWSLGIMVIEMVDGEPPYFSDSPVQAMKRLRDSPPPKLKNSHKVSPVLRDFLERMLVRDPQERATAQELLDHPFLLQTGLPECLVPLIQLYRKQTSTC
T9 sequence (Q8NEV4 whole entry): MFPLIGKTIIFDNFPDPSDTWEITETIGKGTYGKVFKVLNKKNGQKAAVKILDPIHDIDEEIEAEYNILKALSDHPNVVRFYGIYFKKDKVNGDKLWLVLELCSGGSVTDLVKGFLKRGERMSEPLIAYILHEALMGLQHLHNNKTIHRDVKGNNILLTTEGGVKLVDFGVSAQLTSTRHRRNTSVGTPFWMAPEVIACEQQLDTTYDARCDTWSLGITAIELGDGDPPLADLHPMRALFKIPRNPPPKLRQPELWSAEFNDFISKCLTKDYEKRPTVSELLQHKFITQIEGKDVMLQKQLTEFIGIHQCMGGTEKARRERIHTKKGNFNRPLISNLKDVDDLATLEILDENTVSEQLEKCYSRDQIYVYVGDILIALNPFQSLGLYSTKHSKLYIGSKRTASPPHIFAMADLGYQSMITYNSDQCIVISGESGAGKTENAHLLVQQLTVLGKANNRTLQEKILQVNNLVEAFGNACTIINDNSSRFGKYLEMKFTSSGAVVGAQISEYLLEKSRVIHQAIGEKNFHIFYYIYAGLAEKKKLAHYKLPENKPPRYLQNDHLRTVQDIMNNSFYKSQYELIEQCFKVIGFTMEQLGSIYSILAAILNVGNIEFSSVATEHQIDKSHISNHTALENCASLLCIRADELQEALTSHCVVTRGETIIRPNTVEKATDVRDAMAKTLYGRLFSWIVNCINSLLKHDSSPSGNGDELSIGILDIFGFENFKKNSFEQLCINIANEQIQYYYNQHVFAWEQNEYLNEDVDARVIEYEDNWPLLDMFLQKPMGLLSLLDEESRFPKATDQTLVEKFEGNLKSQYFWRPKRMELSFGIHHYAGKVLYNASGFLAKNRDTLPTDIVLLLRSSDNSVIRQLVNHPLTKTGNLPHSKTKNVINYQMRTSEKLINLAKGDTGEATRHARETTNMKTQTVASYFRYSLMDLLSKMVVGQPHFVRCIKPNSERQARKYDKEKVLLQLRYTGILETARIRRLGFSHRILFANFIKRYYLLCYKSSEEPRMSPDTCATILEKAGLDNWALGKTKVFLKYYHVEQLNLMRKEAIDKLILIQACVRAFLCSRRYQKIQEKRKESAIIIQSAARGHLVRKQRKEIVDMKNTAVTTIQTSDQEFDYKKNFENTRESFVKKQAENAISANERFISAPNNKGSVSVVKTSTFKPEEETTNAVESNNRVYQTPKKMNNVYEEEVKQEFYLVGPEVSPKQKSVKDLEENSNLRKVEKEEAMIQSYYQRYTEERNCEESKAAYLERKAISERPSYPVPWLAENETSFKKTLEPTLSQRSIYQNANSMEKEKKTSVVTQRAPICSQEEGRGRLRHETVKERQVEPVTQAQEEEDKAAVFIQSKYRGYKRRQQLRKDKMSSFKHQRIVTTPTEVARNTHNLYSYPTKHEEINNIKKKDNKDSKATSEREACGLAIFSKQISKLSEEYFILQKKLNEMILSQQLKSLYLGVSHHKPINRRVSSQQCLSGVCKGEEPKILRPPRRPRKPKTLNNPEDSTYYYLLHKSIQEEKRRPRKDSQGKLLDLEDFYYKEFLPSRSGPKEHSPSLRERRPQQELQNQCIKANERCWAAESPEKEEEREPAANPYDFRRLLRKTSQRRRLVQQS
T5 sequence (P08069 31-1367): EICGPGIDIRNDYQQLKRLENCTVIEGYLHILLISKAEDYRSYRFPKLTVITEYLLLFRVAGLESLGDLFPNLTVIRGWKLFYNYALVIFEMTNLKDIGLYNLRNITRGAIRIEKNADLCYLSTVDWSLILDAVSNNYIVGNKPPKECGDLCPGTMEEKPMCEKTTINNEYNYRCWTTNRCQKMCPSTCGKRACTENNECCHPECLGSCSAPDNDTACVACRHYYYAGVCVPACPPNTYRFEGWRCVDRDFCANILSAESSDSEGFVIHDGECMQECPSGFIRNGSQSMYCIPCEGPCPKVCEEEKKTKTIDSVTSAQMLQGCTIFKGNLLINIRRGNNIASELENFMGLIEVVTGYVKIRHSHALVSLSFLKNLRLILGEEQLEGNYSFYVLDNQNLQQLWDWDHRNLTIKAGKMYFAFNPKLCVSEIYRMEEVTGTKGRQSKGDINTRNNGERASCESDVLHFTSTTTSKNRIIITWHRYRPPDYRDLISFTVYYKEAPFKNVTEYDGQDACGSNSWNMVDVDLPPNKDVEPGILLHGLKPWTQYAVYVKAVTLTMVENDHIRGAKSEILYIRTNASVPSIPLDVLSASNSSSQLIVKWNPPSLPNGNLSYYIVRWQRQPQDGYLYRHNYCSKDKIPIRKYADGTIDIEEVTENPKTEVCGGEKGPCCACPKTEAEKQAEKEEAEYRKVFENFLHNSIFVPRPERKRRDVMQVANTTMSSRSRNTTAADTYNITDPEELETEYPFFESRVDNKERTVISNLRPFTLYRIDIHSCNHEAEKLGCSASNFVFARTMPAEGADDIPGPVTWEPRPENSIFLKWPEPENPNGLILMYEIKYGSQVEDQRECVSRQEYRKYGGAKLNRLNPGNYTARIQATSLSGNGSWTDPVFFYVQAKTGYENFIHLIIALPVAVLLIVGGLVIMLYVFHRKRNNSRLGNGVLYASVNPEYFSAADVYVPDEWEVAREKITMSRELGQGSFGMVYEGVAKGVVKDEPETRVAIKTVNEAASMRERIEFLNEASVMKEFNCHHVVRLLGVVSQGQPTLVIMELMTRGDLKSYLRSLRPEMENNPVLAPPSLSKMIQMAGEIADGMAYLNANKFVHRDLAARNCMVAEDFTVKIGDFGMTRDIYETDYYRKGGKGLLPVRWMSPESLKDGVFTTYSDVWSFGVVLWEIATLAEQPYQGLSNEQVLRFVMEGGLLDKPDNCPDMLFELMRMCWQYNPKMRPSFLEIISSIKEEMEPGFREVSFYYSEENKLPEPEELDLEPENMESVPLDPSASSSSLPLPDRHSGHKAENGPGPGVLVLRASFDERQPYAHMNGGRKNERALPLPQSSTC
T6 sequence (Q9BYT3 whole entry): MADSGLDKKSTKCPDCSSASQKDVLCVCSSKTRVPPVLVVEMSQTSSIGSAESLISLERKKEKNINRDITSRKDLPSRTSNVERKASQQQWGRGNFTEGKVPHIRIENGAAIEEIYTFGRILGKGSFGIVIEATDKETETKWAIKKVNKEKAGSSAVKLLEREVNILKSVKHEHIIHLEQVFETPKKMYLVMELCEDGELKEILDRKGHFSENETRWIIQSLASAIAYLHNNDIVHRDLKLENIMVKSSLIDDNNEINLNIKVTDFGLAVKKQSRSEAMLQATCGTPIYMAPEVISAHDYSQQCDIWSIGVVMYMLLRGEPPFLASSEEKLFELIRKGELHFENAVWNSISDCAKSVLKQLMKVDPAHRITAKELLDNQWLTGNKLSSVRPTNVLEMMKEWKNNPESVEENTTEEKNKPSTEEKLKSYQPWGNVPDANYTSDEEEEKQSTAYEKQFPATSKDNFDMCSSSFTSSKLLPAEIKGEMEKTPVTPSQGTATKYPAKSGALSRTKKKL
T3 sequence (Q6P2M8 whole entry): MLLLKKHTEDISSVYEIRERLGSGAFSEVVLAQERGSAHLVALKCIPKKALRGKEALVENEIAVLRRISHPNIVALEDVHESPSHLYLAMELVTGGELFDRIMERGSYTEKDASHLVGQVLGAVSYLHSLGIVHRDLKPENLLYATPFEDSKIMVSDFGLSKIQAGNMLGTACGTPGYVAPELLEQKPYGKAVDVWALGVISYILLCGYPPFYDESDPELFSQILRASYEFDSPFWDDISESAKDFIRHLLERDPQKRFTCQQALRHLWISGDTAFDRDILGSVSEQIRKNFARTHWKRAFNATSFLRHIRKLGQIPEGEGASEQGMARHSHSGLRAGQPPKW

| SMILES | remaining binding at 1 µM [1] [%] | remaining binding at 1 µM [2] [%] | remaining binding at 1 µM [3] [%] | remaining binding at 1 µM [4] [%] | remaining binding at 1 µM [5] [%] | remaining binding at 1 µM [6] [%] | remaining binding at 1 µM [7] [%] | remaining binding at 1 µM [8] [%] | remaining binding at 1 µM [9] [%] | remaining binding at 1 µM [10] [%] |
| --- | --- | --- | --- | --- | --- | --- | --- | --- | --- | --- |
| CC1(Nc2nc(Nc3cnn([C@H]4CCN(C5COC5)C[C@@H]4F)c3Cl)nc3[nH]cc(C#N)c23)CC1 [Example 52, 2-((5-chloro-1-((3S,4S)-3-fluoro-1-(oxetane-3-yl)piperidine-4-yl)-1H-pyrazole-4-yl)amino)((1-methylcyclopropyl)amino)-7H-pyrrolo[2,3-d]pyrimidine-5-carbonitrile] | 11 | 8.3 | 64 | 4.4 | 19 | 4 | 87 | 74 | 3.9 | 66 |
| CNc1nc(Nc2ccc(C(=O)N3CCOCC3)cc2OC)nc2[nH]cc(C#N)c12 [Example 1, 2-((2-methoxy-4-(morpholine-4-carbonyl)phenyl)amino)-4-(methylamino)-7H-pyrrolo[2,3-d]pyrimidine-5-carbonitrile] | 56 | 76 | 45 | 90 | 82 | 18 | 79 | 82 | 68 | 100 |
| CCNc1nc(Nc2ccc(C(=O)N3CCC(N4CCOCC4)CC3)cc2OC)nc2[nH]cc(C(F)(F)F)c12 [Example 104, (4-((4-(ethylamino)-5-(trifluoromethyl)-7H-pyrrolo[2,3-d]pyrimidine-2-yl)amino)-3-methoxyphenyl)(4-morpholinopiperidine-1-yl)methanone] | 92 | 91 | 21 | 96 | 12 | 13 | 97 | 100 | 78 | 100 |
